Experimental data as given in patent US20250129021A1, “SMALL MOLECULE PROTEIN SYNTHESIS MODULATORS” (Interdict Bio, Inc., priority 2023, published 2025).
Where two headings read alike, the source gives them in different places.

Assays:
Format in all cases: biochemical
Settings in all cases: HeLa S3 lysate, 2 hrs at 30° C.
CCND1 = experiment: In vitro transcription-translation (IVTT) assay, CCND1 reporter
From the text: (§1) All reporter constructs have been cloned into the pT7CFE1-CHis plasmid (ThermoFisher #88860) using Gibson assembly procedures (NEB #E2611L). The parental pT7CFE1-CHis plasmid contains an EMCV IRES at the 5′UTR for translation initiation, a multiple-cloning site (MCS) for gene insertion, an optional C-terminal His-epitope tag, and polyA sequence in the 3′UTR to regulate mRNA stability. All reporters are designed to be inserted at the MCS to include a red fluorescent protein (mCherry), P2A self-cleaving peptide which releases the preceding mCherry protein product, and a fusion open reading frame containing a 3×FLAG epitope, a peptide sequence of interest (TEST), and green fluorescent protein (sfGFP).
(§2) Construct Plasmid Preparation: All plasmids are isolated from MACH1 cells (ThermoFisher) grown overnight in ampicillin-containing luria broth, and purified using ZymoPure Express Plasmid Midiprep Kit (Zymo Research). Constructs are sequenced verified and diluted to a working concentration of 110 ng/μL.
(§3) HeLa S3 Lysate Preparation: HeLa S3 cell pellets are acquired from Ipracell/Ipratech (Belgium) and shipped as 4 mL frozen cell pellets on dry ice for storage at −80° C. until use. The procedure for lysate preparation is as follows. Prepare 1× Lysis Buffer, cold and stored on ice:
(§4) Each preparation takes 8 cell pellets (4 ml packed volume each, approximately 1.0×10^9 cells per pellet). Thaw cell pellets from −80° C. on ice for 90 mins. Lay pellets horizontally on top of the ice and rotate every 30 mins to ensure even thawing. Once thawed, add 4 mL of cold lysis buffer to each pellet, and using a serological pipet, gently pipet up and down to break up clumps. Incubate resuspended cells in ice for an additional 30 mins (plunged into ice). During 30 min incubation, rinse and RNase-zap (Ambion) glass dounces (use loose pestle “A”), gently dry and place on ice until needed. Prepare RNase-free Eppendorf tubes for spinning and for batch storage. Add batch labels to 1.5-1.7 mL RNase-free microcentrifuge tubes (labeling scheme below). Each batch will have an extra 1.5-1.7 mL RNase-free microcentrifuge tube for 40 μL of lysate, label the top of this tube (labeling scheme below). After 30 min incubation, transfer all 8 mL of cell pellet to dounce. Cell lysis is complete after douncing 100 times. Aliquot cell lysis into 1.5-1.7 mL temporary-microcentrifuge tubes. Place tubes in centrifuge with “fins” out, and spin at 1,200×g for 5 mins. After the first spin use a 1 mL pipet to resuspend each tube and repeat spin. This acts as an additional lysis step, is more vigorous and increases lysate yield. During second spin get liquid N2 and a fresh conical tube on ice. After spin is complete, transfer supernatant (lysate) from microcentrifuge tubes into the 50 mL conical tube and keep on ice. Repeat steps 10-14 for all other cell pellets until completed. Once all cell lysate has been transferred to the 50 mL conical tube pipet to mix so the solution is homogenous. Transfer 1 mL of lysate into batch-labeled microcentrifuge tubes and flash freeze in liquid nitrogen. Be sure to pipet up and down to mix throughout transfer step. Place all tubes in the […] for long-term storage.
(§5) In vitro transcription-translation assay setup: Each assay includes a master mix containing lysate and shared components, a 96-well plate containing compound titrations for testing, a 96-well DNA plate with reporter constructs to be tested, 96-well skirted PCR plates, and 96-well flat-bottom, black, fluorescent assay plates. […]

CCNTB1 = experiment: In vitro transcription-translation (IVTT) assay, CCNTB1 reporter
Description: as §4
In vitro transcription-translation assay setup: Each assay includes a master mix containing lysate and shared components, a 96-well plate containing compound titrations for testing, a 96-well DNA plate with reporter constructs to be tested, 96-well skirted PCR plates, and 96-well flat-bottom, black, fluorescent assay plates. Reaction materials setup: (A) Master mix—15 mL conical tube (3 mL of HeLa S3 Lysate described above; 0.6 mL of ThermoFisher Accessory Proteins (#88882); 1.2 ml of ThermoFisher Reaction Mix (#88882); 0.54 mL of nuclease-free Water); (B) 96-Well Master Mix+Compound Plate (Half-log dilutions (30 μM−0.1 μM) of 4 compounds of interest are prepared in 100% DMSO); 96-Well DNA Plate (Five DNA constructs are plated into single columns within the plate. Row 1 of the column contains nuclease free H2O, all other wells contain 110 ng/μL plasmid DNA). Reactions are started by mixing 155 μL of master mix and 3.5 μL of compound serial dilutions, then 9.1 μL of master mix+compound mixture is aliquoted across 5 96-well plates. Reactions begin with final addition of 2 μL of DNA for a 11.1 μL reaction volume in each well. The entire plate is sealed, and incubated for 2 hrs at 30° C. After 2 hrs, quench the assay using 45 μL of PBS, and transfer 50 μL to a flat-bottom black microplate Quantify the sfGFP and mCherry signals from each well on each plate, taking 3 reads of each plate, and perform data analysis below.
In vitro transcription-translation assay data analysis: Each plate is read three times in channels for both sfGFP and mCherry signals. The average signal across these 3 reads is then calculated for further analysis. Control wells containing no DNA reporter are subtracted from reporter wells in the same column to remove auto-fluorescence of the lysate. Then, the ratio of sfGFP/mCherry is calculated per well, and these ratios are averaged across the triplicate experiments on the same plate. Finally, the ratio of each titration concentration is normalized to the no drug control to create the normalized stalling metric. […]

MYC = experiment: In vitro transcription-translation (IVTT) assay, MYC reporter
From the text: as §1, §2, §3, §4, §5

MCL-1 = experiment: In vitro transcription-translation (IVTT) assay, MCL-1 reporter
From the text: as §1, §2, §3, §4, §5

[1] = IVTT assay, MYC reporter, normalized sfGFP/mCherry ratio, half-log dilutions 30 μM-0.1 μM

Structure (SMILES)	IC50 (CCND1; IVTT)	IC50 (CCNTB1)	IC50 (MCL-1; IVTT, read-out: MCL1 IC50)	IC50 (CCND1; sfGFP/mCherry ratio)	IC50 (MYC; sfGFP/mCherry ratio)	IC50 (MCL-1; sfGFP/mCherry ratio)	IC50 (MYC; [1])
O=C(NCc1cccc(F)c1)O[C@@H]1[C@@H](O)CN[C@@H]1Cc1ccc(F)cc1 [V190506, (2R,3S,4S)-2-[(4-fluorophenyl)methyl]-4-hydroxypyrrolidin-3-yl N-[(3-fluorophenyl)methyl]carbamate]	10 to 20 µM	< 10 µM	< 10 µM	–	–	–	< 10 µM
COc1ccc(C[C@H]2NC[C@H](O)[C@H]2OC(=O)NCc2ccc(C3CNC3)cc2)cc1 [V190559, (2R,3S,4S)-4-hydroxy-2-[(4-methoxyphenyl)methyl]pyrrolidin-3-yl N-{[4-(azetidin-3-yl)phenyl]methyl}carbamate]	< 10 µM	< 10 µM	< 10 µM	–	–	–	< 10 µM
COc1ccc(C[C@H]2NC[C@H](O)[C@H]2OC(=O)NCc2nnc(C)o2)cc1 [V188303, (2R,3S,4S)-4-hydroxy-2-[(4-methoxyphenyl)methyl]pyrrolidin-3-yl N-[(5-methyl-1,3,4-oxadiazol-2-yl)methyl]carbamate]	< 10 µM	< 10 µM	< 10 µM	–	–	–	< 10 µM
COc1ccc(C[C@H]2NC[C@H](O)[C@H]2OC(=O)NCC[C@@H]2CCCN2)cc1 [V188341, (2R,3S,4S)-4-hydroxy-2-[(4-methoxyphenyl)methyl]pyrrolidin-3-yl N-{2-[(2S)-pyrrolidin-2-yl]ethyl}carbamate]	< 10 µM	< 10 µM	< 10 µM	–	–	–	< 10 µM
O=C(NCc1cccc(F)c1)O[C@@H]1[C@@H](O)CN[C@@H]1Cc1ccc(C2CC2)cc1 [V190518, (2R,3S,4S)-2-[(4-cyclopropylphenyl)methyl]-4-hydroxypyrrolidin-3-yl N-[(3-fluorophenyl)methyl]carbamate]	20 to 30 µM	< 10 µM	10 to 20 µM	–	–	–	10 to 20 µM
O=C(NCC[C@@H]1CCCN1)O[C@@H]1[C@@H](O)CN[C@@H]1Cc1ccc(-c2ccc(S(F)(F)(F)(F)F)cc2)cc1 [V191968, (2R,3S,4S)-4-hydroxy-2-((4′-(pentafluoro-l6-sulfanyl)-[1,1′-biphenyl]-4-yl)methyl)pyrrolidin-3-yl (2-((S)-pyrrolidin-2-yl)ethyl)carbamate]	–	> 30 µM	–	–	–	–	> 30 µM
COc1ccc(C[C@H]2NC[C@H](O)[C@H]2OC(=O)NCCNc2ncccn2)cc1 [V188058]	–	–	–	> 30 µM	> 30 µM	> 30 µM	–
COc1ccc(C[C@H]2NC[C@H](O)[C@H]2OC(=O)NCCN[C@@H]2CCNC2)cc1 [V188073, (2R,3S,4S)-4-hydroxy-2-[(4-methoxyphenyl)methyl]pyrrolidin-3-yl N-{2-[(3R)-pyrrolidin-3-ylamino]ethyl}carbamate]	–	–	–	20 to 30 µM	10 to 20 µM	10 to 20 µM	–
COc1ccc(C[C@H]2NC[C@H](O)[C@H]2OC(=O)NCCNc2ccccn2)cc1 [V188059, (2R,3S,4S)-4-hydroxy-2-[(4-methoxyphenyl)methyl]pyrrolidin-3-yl N-[2-(pyridin-2-ylamino)ethyl]carbamate]	–	–	–	10 to 20 µM	10 to 20 µM	10 to 20 µM	–
COc1ccc(C[C@H]2NC[C@H](O)[C@H]2OC(=O)NCCn2ccnc2C)cc1 [V188087, (2R,3S,4S)-4-hydroxy-2-[(4-methoxyphenyl)methyl]pyrrolidin-3-yl N-[2-(2-methylimidazol-1-yl)ethyl]carbamate]	–	–	–	20 to 30 µM	10 to 20 µM	< 10 µM	–
COc1ccc(C[C@H]2NC[C@H](O)[C@H]2OC(=O)NCC(N)=O)cc1 [V188002, (2R,3S,4S)-4-hydroxy-2-[(4-methoxyphenyl)methyl]pyrrolidin-3-yl N-(carbamoylmethyl)carbamate]	–	–	–	< 10 µM	20 to 30 µM	< 10 µM	–

Now from value to compound, other results behind:

IC50 (CCND1; IVTT)	IC50 (CCNTB1)	IC50 (MCL-1; IVTT, read-out: MCL1 IC50)	IC50 (CCND1; sfGFP/mCherry ratio)	IC50 (MYC; sfGFP/mCherry ratio)	IC50 (MCL-1; sfGFP/mCherry ratio)	Structure (SMILES)	IC50 (MYC; [1])
< 10 µM	< 10 µM	< 10 µM	–	–	–	COc1ccc(C[C@H]2NC[C@H](O)[C@H]2OC(=O)NCc2cccc(F)c2)cc1 [V188379, (2R,3S,4S)-4-hydroxy-2-[(4-methoxyphenyl)methyl]pyrrolidin-3-yl N-[(3-fluorophenyl)methyl]carbamate]	< 10 µM
< 10 µM	< 10 µM	< 10 µM	–	–	–	COc1ccc(C[C@H]2NC[C@H](O)[C@H]2OC(=O)NCc2ccc(NS(C)(=O)=O)cc2)cc1 [V191955, (2R,3S,4S)-4-hydroxy-2-[(4-methoxyphenyl)methyl]pyrrolidin-3-yl N-[(4-methanesulfonamidophenyl)methyl]carbamate]	< 10 µM
< 10 µM	< 10 µM	< 10 µM	–	–	–	COc1ccc(C[C@H]2NC[C@H](O)[C@H]2OC(=O)NCc2ccc(C(N)=O)cc2)cc1 [V188296, (2R,3S,4S)-4-hydroxy-2-[(4-methoxyphenyl)methyl]pyrrolidin-3-yl N-[(4-carbamoylphenyl)methyl]carbamate]	< 10 µM
< 10 µM	< 10 µM	< 10 µM	–	–	–	O=C(NCc1ccccc1)O[C@@H]1[C@@H](O)CN[C@@H]1Cc1ccc(C2CC2)cc1 [V188329, (2R,3S,4S)-2-[(4-cyclopropylphenyl)methyl]-4-hydroxypyrrolidin-3-yl N-benzylcarbamate]	< 10 µM
< 10 µM	< 10 µM	< 10 µM	–	–	–	COc1ccc(C[C@H]2NC[C@H](O)[C@H]2OC(=O)NCCc2cnoc2)cc1 [V190449, (2R,3S,4S)-4-hydroxy-2-[(4-methoxyphenyl)methyl]pyrrolidin-3-yl N-[2-(1,2-oxazol-4-yl)ethyl]carbamate]	< 10 µM
< 10 µM	< 10 µM	< 10 µM	–	–	–	COc1ccc(C[C@H]2NC[C@H](O)[C@H]2OC(=O)NCc2ccc(F)c(C#N)c2)cc1 [V188310, (2R,3S,4S)-4-hydroxy-2-[(4-methoxyphenyl)methyl]pyrrolidin-3-yl N-[(3-cyano-4-fluorophenyl)methyl]carbamate]	< 10 µM
< 10 µM	< 10 µM	< 10 µM	–	–	–	O=C(NCC[C@@H]1CCCN1)O[C@@H]1[C@@H](O)CN[C@@H]1Cc1ccc(-c2ccccc2)cc1 [V190505, (2R,3S,4S)-2-{[1,1′-biphenyl]-4-ylmethyl}-4-hydroxypyrrolidin-3-yl N-{2-[(2S)-pyrrolidin-2-yl]ethyl}carbamate]	< 10 µM
